We go through five compounds from PubChem BioAssay AID1259411 (Chemical Carcinogenesis Research Information System (CCRIS), 2018).

Activity calls are given as the source filed them. How the calls were made is not given here.

For this data set, the system named is rodent carcinogenicity bioassays, tumor incidence. Briefly: CCRIS carcinogenicity studies. The method, boiled down: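 NCI-built, expert-reviewed records of carcinogenicity and related test outcomes (mutagenicity, tumor promotion/inhibition) compiled from published and report sources, historical span 1985-2011, not updated.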

Take `CC1CO1` (stereo not given): the carcinogen call reads like this: (Species: MOUSE, Strain/Sex: B6C3F1/FEMALE, Route: INHALATION, Dose: 0, 200, 400 PPM 6 HR/D, 5 D/WK FOR 103 WK, Dose: 0, 200, 400 PPM 6 HR/D, 5 D/WK FOR 103 WK, Tumor Site: Type of Lesion: NASAL TURBINATES: HEMANGIOMA OR HEMANGIOSARCOMA) “active; positive”; (Species: MOUSE, Strain/Sex: B6C3F1/MALE, Route: INHALATION, Dose: 0, 200, 400 PPM 6 HR/D, 5 D/WK FOR 103 WK, Dose: 0, 200, 400 PPM 6 HR/D, 5 D/WK FOR 103 WK, Tumor Site: Type of Lesion: NASAL TURBINATES: HEMANGIOMA, HEMANGIOSARCOMA) “active; positive”; (Species: MOUSE, Strain/Sex: NMRI/FEMALE, Route: SUBCUTANEOUS, Dose: 0, 0.1, 0.3, 1, 2.5 MG/MOUSE IN TRICAPRYLIN 1/WK FOR 95 WK (STUDY DURATION: 110 WK), Dose: 0, 0.1, 0.3, 1, 2.5 MG/MOUSE IN TRICAPRYLIN 1/WK FOR 95 WK (STUDY DURATION: 110 WK), Tumor Site: Type of Lesion: INJECTION SITE: TUMOR) “active; positive”; (Species: RAT, Route: SUBCUTANEOUS, Tumor Site: Type of Lesion: INJECTION SITE) “active; positive”; (Species: RAT, Strain/Sex: F344/FEMALE, Route: INHALATION, Dose: 0, 200, 400 PPM 6 HR/D, 5 D/WK FOR 103 WK, Dose: 0, 200, 400 PPM 6 HR/D, 5 D/WK FOR 103 WK, Tumor Site: Type of Lesion: NASAL TURBINATES: PAPILLARY ADENOMA) “active; positive”; (Species: RAT, Strain/Sex: F344/MALE, Route: INHALATION, Dose: 0, 100, 300 PPM IN AIR 7 HR/D 5 D/WK FOR 104 WK (STUDY DURATION: 2 YR), Dose: 0, 100, 300 PPM IN AIR 7 HR/D 5 D/WK FOR 104 WK (STUDY DURATION: 2 YR), Tumor Site: Type of Lesion: ADRENAL GLAND: PHEOCHROMOCYTOMA, PITUITARY GLAND: ADENOMA) “active; positive”. Moreover, the carcinogen call reads like this: (Species: RAT, Strain/Sex: F344/MALE, Route: INHALATION, Dose: 0, 200, 400 PPM 6 HR/D, 5 D/WK FOR 103 WK, Dose: 0, 200, 400 PPM 6 HR/D, 5 D/WK FOR 103 WK, Tumor Site: Type of Lesion: NASAL TURBINATES: PAPILLARY ADENOMA) “active; positive”; (Species: RAT, Strain/Sex: SPRAGUE-DAWLEY/FEMALE, Route: GAVAGE, Dose: 15, 60 MG/KG IN SALAD OIL 2/WK FOR UP TO 150 WK, Tumor Site: Type of Lesion: FORESTOMACH: SQUAMOUS CELL CARCINOMA) “active; positive”; (Species: RAT, Strain/Sex: SPRAGUE-DAWLEY/MALE, Route: INHALATION, Dose: 0, 435, 870, 1740 PPM 6 HR/D 5 D/WK FOR 30 D EXCEPT 1740 PPM GROUP WHICH WAS EXPOSED FOR 5 D (STUDY DURATION: LIFETIME), Dose: 0, 435, 870, 1740 PPM 6 HR/D 5 D/WK FOR 30 D EXCEPT 1740 PPM GROUP WHICH WAS EXPOSED FOR 5 D (STUDY DURATION: LIFETIME)) “inactive; negative”.

On to `OB(O)O`, for which the carcinogen call is, setting by setting: (Species: MOUSE, Strain/Sex: B6C3F1/FEMALE, Route: ORAL, Dose: 0, 2500, 5000 PPM IN DIET FOR 103 WK (STUDY DURATION: 105 WK), Dose: 0, 2500, 5000 PPM IN DIET FOR 103 WK (STUDY DURATION: 105 WK)) “inactive; negative”; (Species: MOUSE, Strain/Sex: B6C3F1/MALE, Route: ORAL, Dose: 0, 2500, 5000 PPM IN DIET FOR 103 WK (STUDY DURATION: 105 WK), Dose: 0, 2500, 5000 PPM IN DIET FOR 103 WK (STUDY DURATION: 105 WK)) “inactive; negative”.

On to `C[C@]12CC[C@@H]3c4ccc(OC(=O)c5ccccc5)cc4CC[C@H]3[C@@H]1CC[C@@H]2O`, for which the carcinogen call by setting is: (Species: MOUSE, Route: SUBCUTANEOUS, Tumor Site: Type of Lesion: TESTES, PITUITARY GLAND, CERVIX, UTERUS, Tumor Site: Type of Lesion: TESTES, PITUITARY GLAND, CERVIX, UTERUS) “active; positive”; (Species: RAT, Route: SUBCUTANEOUS IMPLANT, Tumor Site: Type of Lesion: PITUITARY GLAND) “active; positive”.

As for `CNNCc1ccc(C(=O)NC(C)C)cc1`, the carcinogen call (Species: MOUSE, Strain/Sex: B6C3F1/FEMALE, Route: INTRAPERITONEAL, Dose: 0, 6, 12 MG/KG IN BUFFERED SALINE 3/WK FOR 52 WK (STUDY DURATION: 67-85 WK), Dose: 0, 6, 12 MG/KG IN BUFFERED SALINE 3/WK FOR 52 WK (STUDY DURATION: 67-85 WK), Tumor Site: Type of Lesion: LUNG: ALVEOLAR/BRONCHIOLAR ADENOMA, HEMATOPOIETIC SYSTEM (LEUKEMIA), LYMPHATIC SYSTEM: LYMPHOMA, UTERUS: ADENOCARCINOMA, Tumor Site: Type of Lesion: LUNG: ALVEOLAR/BRONCHIOLAR ADENOMA, HEMATOPOIETIC SYSTEM (LEUKEMIA), LYMPHATIC SYSTEM: LYMPHOMA, UTERUS: ADENOCARCINOMA) was “active; positive”; the carcinogen call (Species: MOUSE, Strain/Sex: B6C3F1/MALE, Route: INTRAPERITONEAL, Dose: 0, 6, 12 MG/KG IN BUFFERED SALINE 3/WK FOR 52 WK (STUDY DURATION: 67-85 WK), Dose: 0, 6, 12 MG/KG IN BUFFERED SALINE 3/WK FOR 52 WK (STUDY DURATION: 67-85 WK), Tumor Site: Type of Lesion: LUNG: ALVEOLAR/BRONCHIOLAR ADENOMA OR CARCINOMA, HEMATOPOIETIC SYSTEM (LEUKEMIA), LYMPHATIC SYSTEM: LYMPHOMA, BRAIN: OLF, Tumor Site: Type of Lesion: LUNG: ALVEOLAR/BRONCHIOLAR ADENOMA OR CARCINOMA, HEMATOPOIETIC SYSTEM (LEUKEMIA), LYMPHATIC SYSTEM: LYMPHOMA, BRAIN: OLF) was “active; positive”; the carcinogen call (Species: RAT, Strain/Sex: BR46/MALE, Route: INTRAVENOUS, Dose: 24 MG/KG 1/WK FOR 52 WK, Tumor Site: Type of Lesion: MULTIPLE SITES: BENIGN TUMOR OR MALIGNANT TUMOR) is “active; positive”; the carcinogen call (Species: RAT, Strain/Sex: SPRAGUE-DAWLEY/FEMALE, Route: INTRAPERITONEAL, Dose: 0, 15, 30 MG/KG IN BUFFERED SALINE 3/WK FOR 26 WK (STUDY DURATION: 31-86 WK), Dose: 0, 15, 30 MG/KG IN BUFFERED SALINE 3/WK FOR 26 WK (STUDY DURATION: 31-86 WK), Tumor Site: Type of Lesion: LYMPHATIC SYSTEM: MALIGNANT LYMPHOMA, MAMMARY GLAND: ADENOMA (NOS) OR ADENOCARCINOMA (NOS), BRAIN (CEREBRUM): OLFACTORY, Tumor Site: Type of Lesion: LYMPHATIC SYSTEM: MALIGNANT LYMPHOMA, MAMMARY GLAND: ADENOMA (NOS) OR ADENOCARCINOMA (NOS), BRAIN (CEREBRUM): OLFACTORY) was “active; positive”; the carcinogen call (Species: RAT, Strain/Sex: SPRAGUE-DAWLEY/MALE, Route: INTRAPERITONEAL, Dose: 0, 15, 30 MG/KG IN BUFFERED SALINE 3/WK FOR 26 WK (STUDY DURATION: 43-86 WK), Dose: 0, 15, 30 MG/KG IN BUFFERED SALINE 3/WK FOR 26 WK (STUDY DURATION: 43-86 WK), Tumor Site: Type of Lesion: HEMATOPOIETIC SYSTEM (LEUKEMIA), LYMPHATIC SYSTEM: MALIGNANT LYMPHOMA, MAMMARY GLAND: ADENOMA (NOS) OR ADENOSARCOMA (NOS, Tumor Site: Type of Lesion: HEMATOPOIETIC SYSTEM (LEUKEMIA), LYMPHATIC SYSTEM: MALIGNANT LYMPHOMA, MAMMARY GLAND: ADENOMA (NOS) OR ADENOSARCOMA (NOS) was “active; positive”.

As to `OC(c1ccc(Cl)cc1)(c1cncnc1)c1ccccc1Cl` (stereo not given), the carcinogen call reads like this: (Species: Rat, Strain/Sex: Wistar/Female (120/Control group; 80/Experimental group), Route: Oral, Dose: 0, 50, 130, 350 ppm in diet for 24 mo, study duration 24 mo, Dose: 0, 50, 130, 350 ppm in diet for 24 mo, study duration 24 mo) “inactive; negative (nonstatistical increase in hepatocellular adenomas)”; (Species: Rat, Strain/Sex: Wistar/Male (120/Control group; 80/Experimental group), Route: Oral, Dose: 0, 50, 130, 350 ppm in diet for 24 mo, study duration 24 mo, Dose: 0, 50, 130, 350 ppm in diet for 24 mo, study duration 24 mo) “inactive; negative (nonstatistical increase in hepatocellular adenomas)”.
